Test results: patent US10562857B2 (AFASCI, Inc., priority 2015, dated 2020)
pIC50: −log10 of the molar value.

How the values were obtained:
[1] = test system: DRG ion channels K+; experiment: Potassium currents in DRG neurons, patch clamp; type: cell-based, rodent; conditions: Table 2
Experimental: All the procedures related to animal handling were in strict accordance with NIH guidelines and IACUC approved protocols. Briefly, the spine was taken out and split into two halves from the middle line after sacrificing the mice by decapitation. […] The DRG neurons were minced with fine scissors and incubated at 35° C. for 50 min. […] Finally the cells were dispersed onto poly-1-ornithine-coated cover slips and maintained in a modified Krebs solution with streptomycin sulfate (0.2 mM), Penicillin G Sodium (0.3 mM), and Gentamycin (0.1 mM) at 21° C. […] All experiments were performed at room temperature (around 21° C.). Whole-cell currents were recorded using a MultiClamp 700B amplifier and analyzed offline with pCLAMP10.4 software (Molecular Devices, LLC, Sunnyvale Calif., USA). […] The internal solution was composed (in mM) of 125 CsCl, 10 HEPES (acid), 10 EGTA (ethylene glycol tetraacetic acid), 1 CaCl2, 1 MgCl2, 4 MgATP and 0.3 […] 7.3-7.4 adjusted with CsOH; osmolality verified as 295 mOsm/kg). Since the sodium ions were absent in the external solution, tetrodoctoxin was not needed. […] To record sodium (Na^+) currents in DRG neurons, the external solution used the modified Krebs solution specified above. […] To record potassium currents in DRG neurons, the external solution used the modified Kreb's solution specified above. The internal solution was composed (in mM) of 65 KCl, 80 KF, 5 KOH, 10 EGTA, 2 MgATP (pH 7.3-7.4 adjusted with KOH). Recording electrodes were fabricated using a P-87 puller (Sutter Instrument Co., Novato, Calif., USA). […] All reagents were purchased from Sigma unless specified otherwise. […] Selectivity among the three subtypes of the Cav3 T-type channel, and off-target effects on other key ion channels of the representative example compounds are presented in Table 2. Sodium and potassium channels in the rodent DRG neurons were recorded and tested as described above. The human ether-a-go-go-related gene (hERG) encodes the rapidly activating potassium channel (IKr) contributing to the repolarization of the cardiac action potential. The blockade of hERG can lead to a QT prolongation in the electrocardiogram known as long QT syndrome (Sanguinetti, et al., 1995). Therefore the representative example compounds in Table 2 were tested against the hERG channel.

[2] = test system: PTZ-induced seizures in mice; experiment: Pentylenetetrazol (PTZ)-induced seizures in mice; type: in vivo, mouse; conditions: for latency to seizures / fatality latency / fatality rate: 30 mg/kg I.P., PTZ 40 mg/kg I.P.; for fatality latency / fatality rate: 20 min cutoff; for PTZ-induced Fatality (%): 30 mg/kg I.P. 60 min before PTZ 40 mg/kg I.P., death within 20 min
Experimental: FIG. 10. […] Sixty minutes (min) prior to receiving PTZ (40 mg/kg, I.P.), each mouse was pretreated with either an Example compound, ML218, Z944 or vehicle (2% DMSO in 0.5% HPC). Fatality rate (%) of mice in each group that dies within the 20 minutes observation period—was calculated. Both fatality rate and latency (data not shown) to death were used to evaluate the Example compound's ability to prevent death resulting from PTZ-induced seizures. A cutoff of 20 minutes was set for observational and statistical analysis purposes.
It is well known that antiepileptics, e.g. carbamazepine, lamotrigine and gabapentin are used for the treatment of neuropathic pain (Xie et al., 1995, Caviedes and Herranz, 2001). T-channel overactivation is involved in the generation of seizure activity (Huguenard, 1998, Cribbs et al., 2000, Perez-Reyes et al., 2009, Perez-Reyes, 2010). […] Fatality latency and rate—the percentage (%) of mice in each treatment group that died within a 20 minute cutoff of the observational period, were recorded and calculated. Averaged fatality latency and rate of each treatment group was used to evaluate the Example compound's ability to either prevent or delay the onset of PTZ-induced seizures and death.

Which results are given for `CC(C)(C)NC(=O)CN1CCC2(CC1)C[C@H]2NC(=O)c1cc(Cl)cc(Cl)c1` (single isomer, unassigned) [Example 57, (R)—N-(6-(2-(tert-Butylamino)-2-oxoethyl)-6-azaspiro[2.5]octan-1-yl)-3,5-dichlorobenzamide or (S)—N-(6-(2-(tert-Butylamino)-2-oxoethyl)-6-azaspiro[2.5]octan-1-yl)-3,5-dichlorobenzamide]?
pIC50 [1]: < 4.00; latency to seizures [2]: significantly prolonged latencies to seizures; fatality latency [2]: prolonged fatality latencies; fatality rate [2]: decreased the fatality rate

`CC(C)(C)NC(=O)CN1CCC2(CC1)CC2NC(=O)c1cc(F)cc(Cl)c1` (single isomer, unassigned) [Example 128, (S)—N-(6-(2-(tert-Butylamino)-2-oxoethyl)-6-azaspiro[2.5]octan-1-yl)-3-chloro-5-fluorobenzamide or (R)—N-(6-(2-(tert-Butylamino)-2-oxoethyl)-6-azaspiro[2.5]octan-1-yl)-3-chloro-5-fluorobenzamide] was tested. Which pIC50 [1] did it give?
The pIC50 was under 4.00.

And the “PTZ-induced Fatality (%)” value [2]?
The value was 16.7%.

What about the latency to seizures [2] of the same molecule?
Its latency to seizures is “significantly prolonged latencies to seizures”.

And the fatality latency [2]?
The fatality latency was “prolonged fatality latencies”.

And the fatality rate [2]?
Its fatality rate is “decreased the fatality rate”.

What does the source list for `CC(C)(C)NC(=O)CN1CCC2(CC1)C[C@H]2NC(=O)c1cc(F)cc(Cl)c1` (single isomer, unassigned) [Example 129, (R)—N-(6-(2-(tert-Butylamino)-2-oxoethyl)-6-azaspiro[2.5]octan-1-yl)-3-chloro-5-fluorobenzamide or (S)—N-(6-(2-(tert-Butylamino)-2-oxoethyl)-6-azaspiro[2.5]octan-1-yl)-3-chloro-5-fluorobenzamide]?
pIC50 [1]: < 4.00; latency to seizures [2]: significantly prolonged latencies to seizures; fatality latency [2]: prolonged fatality latencies; fatality rate [2]: decreased the fatality rate

What does the source list for `CC(C)(C)NC(=O)CN1CCC2(CC1)C[C@H]2NC(=O)c1cc(F)cc(C(F)(F)F)c1` (single isomer, unassigned) [Example 130, (R)—N-(6-(2-(tert-Butylamino)-2-oxoethyl)-6-azaspiro[2.5]octan-1-yl)-3-fluoro-5-(trifluoromethyl)benzamide or (S)—N-(6-(2-(tert-Butylamino)-2-oxoethyl)-6-azaspiro[2.5]octan-1-yl)-3-fluoro-5-(trifluoromethyl)benzamide]?
pIC50 [1]: < 4.00; latency to seizures [2]: significantly prolonged latencies to seizures; fatality latency [2]: prolonged fatality latencies; fatality rate [2]: decreased the fatality rate

`CC(C)(C)NC(=O)CN1CCC2(CC1)C[C@H]2C(=O)Nc1cc(C(F)(F)F)cc(C(F)(F)F)c1` (single isomer, unassigned) [Example 132, (R)—N-(3,5-Bis(trifluoromethyl)phenyl)-6-(2-(tert-butylamino)-2-oxoethyl)-6-azaspiro[2.5]octane-1-carboxamide or (S)—N-(3,5-Bis(trifluoromethyl)phenyl)-6-(2-(tert-butylamino)-2-oxoethyl)-6-azaspiro[2.5]octane-1-carboxamide] was tested. Which pIC50 [1] did it give?
The pIC50 was under 4.00.

What about the latency to seizures [2] of the same molecule?
The latency to seizures was “significantly prolonged latencies to seizures”.

And the fatality latency [2]?
Its fatality latency is “prolonged fatality latencies”.

What about the fatality rate [2] of the same molecule?
The fatality rate was “decreased the fatality rate”.

How did the pIC50 [1] turn out when `CC(C)(C)NC(=O)CN1CCC2(CC1)C[C@H]2NC(=O)c1cc(C(F)(F)F)cc(C(F)(F)F)c1` (single isomer, unassigned) [Example 144, ((R)—N-(6-(2-(tert-butylamino)-2-oxoethyl)-6-azaspiro[2.5]octan-1-yl)-3,5-bis(trifluoromethyl)benzamide or (S)—N-(6-(2-(tert-butylamino)-2-oxoethyl)-6-azaspiro[2.5]octan-1-yl)-3,5-bis(trifluoromethyl)benzamide] was run?
Its pIC50 is under 4.52.

And the latency to seizures [2]?
The latency to seizures was “significantly prolonged latencies to seizures”.

What about the fatality latency [2] of the same molecule?
The fatality latency was “prolonged fatality latencies”.

And the fatality rate [2]?
The fatality rate was “decreased the fatality rate”.

With `CC(C)(C)NC(=O)CN1CCC2(CC1)C[C@H]2NC(=O)C12CC3CC(CC(C3)C1)C2` (single isomer, unassigned) [Example 145, N—((R)-6-(2-(tert-butylamino)-2-oxoethyl)-6-azaspiro[2.5]octan-1-yl)adamantane-1-carboxamide or N—((S)-6-(2-(tert-butylamino)-2-oxoethyl)-6-azaspiro[2.5]octan-1-yl)adamantane-1-carboxamide] as the molecule, how does the pIC50 [1] read?
Its pIC50 is under 4.52.

And the latency to seizures [2]?
The latency to seizures was “significantly prolonged latencies to seizures”.

What about the fatality latency [2] of the same molecule?
Its fatality latency is “prolonged fatality latencies”.

And the fatality rate [2]?
Its fatality rate is “decreased the fatality rate”.

With `CC(C)(C)CCN1CCC2(CC1)C[C@H]2NC(=O)c1cc(C(F)(F)F)cc(C(F)(F)F)c1` (single isomer, unassigned) [Example 146, (R)—N-(6-(3,3-dimethylbutyl)-6-azaspiro[2.5]octan-1-yl)-3,5-bis(trifluoromethyl)benzamide or (S)—N-(6-(3,3-dimethylbutyl)-6-azaspiro[2.5]octan-1-yl)-3,5-bis(trifluoromethyl)benzamide] as the molecule, how does the pIC50 [1] read?
Its pIC50 is under 4.00.

What about the latency to seizures [2] of the same molecule?
The latency to seizures was “significantly prolonged latencies to seizures”.

And the fatality latency [2]?
Its fatality latency is “prolonged fatality latencies”.

And the fatality rate [2]?
Its fatality rate is “decreased the fatality rate”.

How did the pIC50 [1] turn out when `CC(C)(C)CCN1CCC2(CC1)C[C@H]2NC(=O)c1cc(C(F)(F)F)ccc1Cl` (single isomer, unassigned) [Example 147, (R)-2-Chloro-N-(6-(3,3-dimethylbutyl)-6-azaspiro[2.5]octan-1-yl)-5-(trifluoromethyl)benzamide or (S)-2-Chloro-N-(6-(3,3-dimethylbutyl)-6-azaspiro[2.5]octan-1-yl)-5-(trifluoromethyl)benzamide] was run?
The pIC50 was under 4.00.

What about the latency to seizures [2] of the same molecule?
Its latency to seizures is “significantly prolonged latencies to seizures”.

And the fatality latency [2]?
Its fatality latency is “prolonged fatality latencies”.

And the fatality rate [2]?
Its fatality rate is “decreased the fatality rate”.

`CC(C)(C)NC(=O)CN1CCC2(CC1)CC2NC(=O)c1cc(F)cc(Cl)c1` (stereo not drawn) [Example 17, N-(6-(2-(tert-Butylamino)-2-oxoethyl)-6-azaspiro[2.5]octan-1-yl)-3-chloro-5-fluorobenzamide] was tested. Which pIC50 [1] did it give?
Its pIC50 is under 4.00.

What about the latency to seizures [2] of the same molecule?
Its latency to seizures is “significantly prolonged latencies to seizures”.

What about the fatality latency [2] of the same molecule?
The fatality latency was “prolonged fatality latencies”.

And the fatality rate [2]?
Its fatality rate is “decreased the fatality rate”.

With `CC(C)(C)CCN1CCC2(CC1)CC2NC(=O)c1cc(F)cc(Cl)c1` (stereo not drawn) [Example 28, 3-Chloro-N-(6-(3,3-dimethylbutyl)-6-azaspiro[2.5]octan-1-yl)-5-fluorobenzamide] as the molecule, how does the pIC50 [1] read?
The pIC50 was about 4.00.

What about the latency to seizures [2] of the same molecule?
The latency to seizures was “significantly prolonged latencies to seizures”.

And the fatality latency [2]?
The fatality latency was “prolonged fatality latencies”.

What about the fatality rate [2] of the same molecule?
Its fatality rate is “decreased the fatality rate”.

How did the pIC50 [1] turn out when `CC(C)(C)NC(=O)CN1CCC2(CC1)CC2C(=O)Nc1cc(F)cc(C(F)(F)F)c1` (stereo not drawn) [Example 141, 6-(2-(tert-Butylamino)-2-oxoethyl)-N-(3-fluoro-5-(trifluoromethyl)phenyl)-6-azaspiro[2.5]octane-1-carboxamide] was run?
The pIC50 was under 4.52.

What about the latency to seizures [2] of the same molecule?
The latency to seizures was “significantly prolonged latencies to seizures”.

What about the fatality latency [2] of the same molecule?
The fatality latency was “prolonged fatality latencies”.

And the fatality rate [2]?
Its fatality rate is “decreased the fatality rate”.

`CC(C)(C)CCN1C[C@@H]2[C@@H](CNC(=O)c3cc(Cl)cc(Cl)c3)[C@@H]2C1` [ML218, 3,5-Dichloro-N-[[(1α,5α,6-exo,6α)-3-(3,3-dimethylbutyl)-3-azabicyclo[3.1.0]hex-6-yl]methyl]benzamide, reference compound] was tested. Which pIC50 [1] did it give?
The pIC50 was 4.10.

What about the “PTZ-induced Fatality (%)” value [2] of the same molecule?
Its value is 50%.

And the latency to seizures [2]?
The latency to seizures was “significantly prolonged latencies to seizures”.

What about the fatality latency [2] of the same molecule?
The fatality latency was “prolonged fatality latencies”.

What about the fatality rate [2] of the same molecule?
Its fatality rate is “decreased the fatality rate”.
